The target in assay [1] is T1, Y71V mutant EAG1 channels (Mus musculus, UniProt Q60603, Y71V).
T1 construct: expressed in transfected cells; host or cells: Xenopus laevis oocytes injected with cRNA
T1 sequence (Q60603 1-989 Y71V): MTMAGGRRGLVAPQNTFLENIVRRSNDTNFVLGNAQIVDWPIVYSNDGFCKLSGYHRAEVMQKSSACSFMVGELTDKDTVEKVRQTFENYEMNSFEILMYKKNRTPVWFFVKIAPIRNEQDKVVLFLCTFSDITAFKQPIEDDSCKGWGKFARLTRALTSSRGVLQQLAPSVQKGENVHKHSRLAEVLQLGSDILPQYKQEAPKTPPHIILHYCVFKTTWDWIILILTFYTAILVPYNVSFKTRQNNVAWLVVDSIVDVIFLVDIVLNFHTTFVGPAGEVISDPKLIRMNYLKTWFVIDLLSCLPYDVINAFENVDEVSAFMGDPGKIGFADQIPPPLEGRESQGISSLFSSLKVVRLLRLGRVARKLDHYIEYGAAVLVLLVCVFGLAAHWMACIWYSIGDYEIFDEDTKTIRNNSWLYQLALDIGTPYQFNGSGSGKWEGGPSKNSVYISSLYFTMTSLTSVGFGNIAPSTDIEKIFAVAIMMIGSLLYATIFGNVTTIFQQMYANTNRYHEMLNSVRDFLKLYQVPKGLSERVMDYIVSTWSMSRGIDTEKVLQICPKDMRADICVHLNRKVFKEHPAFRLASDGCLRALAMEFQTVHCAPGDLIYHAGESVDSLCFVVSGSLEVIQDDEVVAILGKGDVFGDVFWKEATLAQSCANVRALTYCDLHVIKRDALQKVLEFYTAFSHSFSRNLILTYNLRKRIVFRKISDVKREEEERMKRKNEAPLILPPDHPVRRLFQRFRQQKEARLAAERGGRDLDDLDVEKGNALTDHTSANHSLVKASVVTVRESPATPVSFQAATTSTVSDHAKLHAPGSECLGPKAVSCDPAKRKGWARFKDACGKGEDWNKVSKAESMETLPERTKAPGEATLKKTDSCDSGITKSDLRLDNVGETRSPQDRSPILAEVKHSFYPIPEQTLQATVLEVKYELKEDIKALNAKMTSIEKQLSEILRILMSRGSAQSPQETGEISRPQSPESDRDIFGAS
Kind of assay: TEVC recording, imipramine inhibition, Y71V mutant. In kind it is cell-based. The following applies: Y71V mutant EAG1 channel, +50 mV. The source says:
(§1) The cDNA encoding wild-type (WT) mouse EAG1 channels in pGH19 vector was kindly provided by G. Robertson (University of Wisconsin-Madison, Madison, WI). The mutant ΔPAS EAG1 channel in pGH19 with the deletion of the PAS domain residues 2 to 130 was generated by Bio Basic Inc and verified by DNA sequencing (Genewiz). Mutant EAG1 channels with single amino acid substitutions were generated by Genewiz and verified by DNA sequencing. cRNA was transcribed using the T7 mMessage mMachine kit (Thermo Fisher Scientific). Defolliculated Xenopus laevis oocytes were purchased from Ecocyte Bioscience or Xenopus1 and injected with the cRNA using a Nanoinject II oocyte injector (Drummond).
(§2) For EAG1 current recordings, oocytes were placed into a handmade chamber containing a bath solution for the current recording. The currents were recorded using a TEVC technique with OC-725C amplifier (Warner Instruments) and pClamp11 software (Molecular Devices). The signals were digitized using Digidata 1550 (Molecular Devices). Patch pipettes were pulled from borosilicate glass and had resistances of 0.7 to 1.5 MΩ. The recording (bath) solution contained 96 mM NaCl, 4 mM KCl, 0.1 mM CaCl2, 1.8 mM MgCl2, and 5 mM HEPES, pH 7.5. The pipette solution contained 3 M KCl. […]

The target in assay [2] is T2, D39G mutant EAG1 channels (Mus musculus, UniProt Q60603, D39G).
T2 construct: expressed in transfected cells; host or cells: Xenopus laevis oocytes injected with cRNA
T2 sequence (Q60603 1-989 D39G): T1 sequence (Q60603 1-989 Y71V) with D39G, V71Y
The assay is described as follows: TEVC recording, imipramine inhibition, D39G mutant. The note with it: D39G mutant EAG1 channel, +50 mV. In kind it is cell-based.
Excerpt: as §1, §2

Structures are written as SMILES. Positions count from the first letter of the chain named.

For the compound `CN(C)CCCN1c2ccccc2CCc2ccccc21` [imipramine], the IC50 – broadly, the concentration at which inhibition is half-maximal – in assay [1] is 31.3 ± 1.8 µM; in assay [2], 79.6 ± 5.4 µM.

Source of the values: publication PMC10687071 (The Journal of Biological Chemistry, 2023).
